The text below walks through data of patent publication US20030065039A1, “Biologically active 1,3-bis-aromatic-prop-2-en-1-ones, 1,3-bis-aromatic-propan-1-ones, and 1,3-bis-aromatic-prop-2-yn-1-ones” (Statens Serum Institute, priority 1997, published 2003).

Molecules are shown by their SMILES. Where two headings read alike, the source gives them in different places.

For series [1], the target named is T1, Helicobacter pylori fumarate reductase (Helicobacter pylori, UniProt O06913).
T1 construct: Membrane associated proteins were solubilized from the pellet in 150 mM KCl, pH 7.0; endogenous in cells; host or cells: Helicobacter pylori 007 strain; KCl-solubilised fraction (or sonicate supernatant)
T1 sequence (O06913 1-714): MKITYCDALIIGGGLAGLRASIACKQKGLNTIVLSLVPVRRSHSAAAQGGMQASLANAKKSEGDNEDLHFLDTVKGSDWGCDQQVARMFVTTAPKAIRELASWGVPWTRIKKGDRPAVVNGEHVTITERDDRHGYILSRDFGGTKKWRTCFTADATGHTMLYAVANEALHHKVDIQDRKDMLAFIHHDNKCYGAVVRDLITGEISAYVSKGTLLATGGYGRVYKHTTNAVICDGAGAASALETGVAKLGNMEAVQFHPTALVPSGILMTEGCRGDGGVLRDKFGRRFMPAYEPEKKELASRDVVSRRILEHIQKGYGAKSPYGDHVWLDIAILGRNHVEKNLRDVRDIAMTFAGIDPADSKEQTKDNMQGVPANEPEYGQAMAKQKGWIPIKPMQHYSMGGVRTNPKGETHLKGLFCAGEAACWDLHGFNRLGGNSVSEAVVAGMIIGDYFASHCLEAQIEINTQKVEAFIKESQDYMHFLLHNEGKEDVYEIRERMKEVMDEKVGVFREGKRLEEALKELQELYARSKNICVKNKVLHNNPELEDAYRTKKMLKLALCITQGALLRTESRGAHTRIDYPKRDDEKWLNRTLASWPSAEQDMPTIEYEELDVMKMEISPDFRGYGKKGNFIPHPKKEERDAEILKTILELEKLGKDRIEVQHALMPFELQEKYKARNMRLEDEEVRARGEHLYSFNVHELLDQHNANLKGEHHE
T1 sequence (O06914 1-245 partner): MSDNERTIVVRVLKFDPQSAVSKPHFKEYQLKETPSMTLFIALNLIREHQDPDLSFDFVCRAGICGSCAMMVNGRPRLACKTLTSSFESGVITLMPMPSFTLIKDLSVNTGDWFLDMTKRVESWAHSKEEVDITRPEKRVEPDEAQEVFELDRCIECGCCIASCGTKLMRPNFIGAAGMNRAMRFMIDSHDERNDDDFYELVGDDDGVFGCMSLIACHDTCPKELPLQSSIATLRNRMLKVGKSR
T1 sequence (O06912 1-255 partner): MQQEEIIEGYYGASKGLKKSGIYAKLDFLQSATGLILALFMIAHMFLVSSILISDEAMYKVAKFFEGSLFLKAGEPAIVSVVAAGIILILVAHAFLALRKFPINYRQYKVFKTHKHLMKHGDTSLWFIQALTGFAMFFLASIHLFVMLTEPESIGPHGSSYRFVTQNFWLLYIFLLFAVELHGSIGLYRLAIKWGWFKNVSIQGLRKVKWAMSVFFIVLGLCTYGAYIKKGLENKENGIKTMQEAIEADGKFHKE
The format is biochemical. To be noted: Control 19.2 ± 2.5. Here is the method:
1) Extraction of soluble FRD: Bacteria were harvested by centrifugation at 18,000 g for 10 min at 4° C., and were washed 2 times in an isotonic phosphate saline buffer (50 mM sodium phosphate, pH 7.2, 90 mM NaCl, 5 mM Kcl). Bacteria were lysed in 5 mM Tris-HCl, pH 7.4, for 15 minutes, and centrifuged 18,000 g for 10 minutes. Membrane associated proteins were solubilized from the pellet in 150 mM KCl, pH 7.0, in ice bath for 60 min, and then the supernatant was collected after centrifugation (18,000 g for 10 minutes) for the measurement of FRD activity.
2) Extraction of FRD by sonication: Bacteria were harvested by centrifugation at 18,000 g for 10 min at 4° C., were sonicated, and then the supernatant was collected after centrifugation (18,000 g for 10 minutes) for the measurement of FRD activity.
NADH-FRD activity was determined as the rate of NADH-oxidation upon addition of 1 mM fumarate in the KCl-solubilized fraction or sonicated fraction. The reaction was monitored spectrophotometrically at 340 nm (∈=6.2 mM^−1 cm^−1) using 100 μM NADH and usually 3 mg protein in both reference and sample cuvettes. The measurement was carried out in a Shimadzu UV-190 double-beam spectrophotometer. Protein concentrations were determined using a Bio-Rad protein assay (Bio-Rad Laboratories, 200 Alfred Nobel Dr. Hercules, Calif. 94547, USA).
KCl solubilised fraction of bacteria was incubated with different concentrations of various oxygenated chalcones at 28° C. and the remaining FRD activity was measured. The IC50 values were determined as the concentration at which 50% of the activity was inhibited.

The target of series [2] is T2, SDH (J774) (Mus musculus, UniProt Q8K2B3).
T2 construct: endogenous in cells; host or cells: J774 cells, membrane rich fraction
T2 sequence (Q8K2B3 43-664): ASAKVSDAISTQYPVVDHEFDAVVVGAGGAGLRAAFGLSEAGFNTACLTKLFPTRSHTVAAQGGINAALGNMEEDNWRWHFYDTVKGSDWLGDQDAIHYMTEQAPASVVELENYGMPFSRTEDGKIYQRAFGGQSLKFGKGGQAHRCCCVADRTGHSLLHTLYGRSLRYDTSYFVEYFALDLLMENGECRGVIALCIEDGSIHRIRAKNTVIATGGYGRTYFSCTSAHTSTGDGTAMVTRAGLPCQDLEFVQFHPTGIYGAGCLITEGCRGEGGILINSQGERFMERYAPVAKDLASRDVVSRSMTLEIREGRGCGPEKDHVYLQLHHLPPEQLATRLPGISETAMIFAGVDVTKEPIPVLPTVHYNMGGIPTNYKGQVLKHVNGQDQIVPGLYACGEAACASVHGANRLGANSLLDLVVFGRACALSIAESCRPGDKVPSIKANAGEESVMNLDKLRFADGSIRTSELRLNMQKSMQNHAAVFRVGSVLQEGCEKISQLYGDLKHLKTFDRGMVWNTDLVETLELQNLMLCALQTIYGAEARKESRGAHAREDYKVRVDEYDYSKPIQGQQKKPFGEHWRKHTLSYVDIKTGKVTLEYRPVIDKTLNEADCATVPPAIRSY
T2 sequence (Q9CQA3 31-282 partner): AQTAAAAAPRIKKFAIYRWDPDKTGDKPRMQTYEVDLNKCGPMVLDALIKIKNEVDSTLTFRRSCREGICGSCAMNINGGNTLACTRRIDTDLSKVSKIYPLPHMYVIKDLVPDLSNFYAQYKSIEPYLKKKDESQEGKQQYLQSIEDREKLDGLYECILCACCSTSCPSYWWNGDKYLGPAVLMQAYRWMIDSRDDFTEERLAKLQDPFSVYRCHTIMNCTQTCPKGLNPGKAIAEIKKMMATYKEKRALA
T2 sequence (Q9CZB0 30-169 partner): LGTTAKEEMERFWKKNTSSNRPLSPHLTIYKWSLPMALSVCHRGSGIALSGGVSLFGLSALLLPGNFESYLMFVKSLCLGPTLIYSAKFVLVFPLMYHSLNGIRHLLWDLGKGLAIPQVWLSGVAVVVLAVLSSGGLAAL
T2 sequence (Q9CXV1 57-159 partner): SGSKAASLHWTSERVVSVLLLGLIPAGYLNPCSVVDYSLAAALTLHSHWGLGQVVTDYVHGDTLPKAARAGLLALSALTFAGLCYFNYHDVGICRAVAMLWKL
Put plainly: Effect on J774 cells succinate dehydrogenase. Format: biochemical. The note with it: incubation at 28° C. for 5 min.

For series [3], the target named is NDH (human MNC). Nature of the series: Effect on human MNC NADH dehydrogenase. Format: biochemical. To be noted: incubation at 28° C. for 5 min. Here is the method: FIG. 15. Effect of licochalcone A on human MNC NADH dehydrogenase. Membrane rich fraction of parasite was incubated with licochalcone A at 28° C. for 5 min, the remaining enzyme activity was measured. Data are mean ±SEM from 4 different experiments.

Series [4] has as its system CHO cells. Nature of the series: Chromosomal aberration assay with CHO cells. The format is cell-based. To be noted: both with and without metabolic activation (S9 mix).
The mark [5] stands for this setting: compound 50 (unit not given), mean±SD, three experiments.

`C=CC(C)(C)c1cc(/C=C/C(=O)c2ccc(O)cc2)c(OC)cc1O` [Licochalcone A]: the FRD activity in series [1] (compound 1 (unit not given)) was 14.5 ± 2.9 mu/mg of protein; in series [1] (compound 5 (unit not given)) it was 6.8 ± 1.7 mu/mg of protein; in series [1] (compound 10 (unit not given)), 2.5 ± 1.1 mu/mg of protein; in series [1] (compound 25 (unit not given)), 0.9 ± 0.6 mu/mg of protein; in series [1] (setting [5]), 0.0 mu/mg of protein. The IC50 in series [2] is listed as 1122.2 μg/mg protein; in series [3] it was 454.2 μg/mg protein.

On to `COc1cc(/C=C/C(=O)c2ccc([N+](=O)[O-])cc2)cc(OC)c1` [PH105, 4′-nitro-3,5-dimethoxychalcone], for which the FRD activity in series [1] (compound 1 (unit not given)) is recorded as 15.8 ± 2.0 mu/mg of protein; in series [1] (compound 5 (unit not given)) it was 8.5 ± 1.8 mu/mg of protein; in series [1] (compound 10 (unit not given)) it was 4.1 ± 1.5 mu/mg of protein; in series [1] (compound 25 (unit not given)) it was 1.7 ± 0.7 mu/mg of protein; in series [1] (setting [5]), 0.0 mu/mg of protein.

On to `C=CCOc1ccc(C(=O)/C=C/c2cc(OC)cc(OC)c2)cc1` [SBC-35ma, 3,5-dimethoxy-4′-allyloxychalcone], for which, in series [4], the “chromosomal aberration assay with CHO cells” value was “clear clastogenic response”.
